Assay [1] deals with N. gonorrhoeae F62 ΔlgtD. The class given is cell-based, Neisseria gonorrhoeae. To be noted: for % survival in 3.3% serum / % survival in 10% serum: Table 5. The procedure:
Generally, bacteria (F62 ΔlgtD) grown overnight on chocolate agar plates were suspended in gonococcal liquid media supplemented with IsoVitaleX [29] that contained specified concentrations of the CMP-nonulosonate. Bacteria were then incubated at 37° C. for the period specified in each experiment.
Serum bactericidal assays were performed as follows, similar to methods outlined in [32,33] and in U.S. Pat. No. 9,765,106. Bacteria were harvested from an overnight culture on chocolate agar plates and ˜10^5 CFU of Ng were grown in liquid media containing the concentrations of CMP-NuIO as specified for each experiment. Bacteria were diluted in Morse A and ˜2000 CFU of Ng F62 ΔlgtD were incubated with NHS (concentration specified for each experiment). The final reaction volumes were maintained at 150 μL. Aliquots of 25 μL of reaction mixtures were plated onto chocolate agar in duplicate at the beginning of the assay (t0) and again after incubation at 37° C. for 30 minutes (t30). Survival was calculated as the number of viable colonies at t30 relative to t0.
Addition of a terminal Neu5Ac residue to the LNnT LOS of N. gonorrhoeae that occurs in vivo or following the addition of CMP-Neu5Ac to growth media results in resistance to complement-dependent killing. We next determined the effects of LNnT incorporation of KDN on the ability of N. gonorrhoeae F62 ΔlgtD to resist complement-dependent killing by normal human sera at concentrations of 3.3% or 10%. Bacteria were grown either in media alone, or media supplemented with 20 μg/mL of CMP-Neu5Ac or CMP-KDN. In addition, CMP-NulO competition experiments were also performed with CMP-Neu5Ac, CMP-Leg5Ac7Ac and CMP-KDN at CMP-NulO concentrations of either 20 μg/mL or 2 μg/mL as indicated, where the second CMP-NulO was added 15 minutes after the first (Table 1 below). To note, these CMP-NulO competition experiments are a method to examine the ability of select CMP-NulOs to counter the enhanced serum resistance due to CMP-Neu5Ac addition, providing information on their therapeutic potential (as any potential therapeutic will be required to compete with CMP-Neu5Ac in vivo).

Assay [2] concerns the target T1, gonococcal LOS sialyltransferase (Lst) (Neisseria gonorrhoeae, UniProt P72074).
T1 construct: CMP-KDN served as a substrate for gonococcal Lst in the context of live bacteria; endogenous in cells; host or cells: N. gonorrhoeae F62 ΔlgtD (live bacteria)
Put plainly: mAb 3F11 binding by flow cytometry (incorporation of NulO on LNnT LOS by Lst). Conditions: F62 ΔlgtD grown in media with 20 μg/mL CMP-NulO. Type of assay: cell-based, N. gonorrhoeae F62 ΔlgtD. The procedure:
FIG. 1: CMP-KDN serves as a substrate for gonococcal LOS and incorporation of KDN on gonococcal lacto-N-neotetraose LOS enhances factor H (FH) binding. A. Incorporation of KDN by gonococci. Gonococcal strain F62 ΔlgtD (expresses lacto-N-neotetraose (LNnT) from Hepl) was grown in media containing CMP-KDN (20 μg/mL) and binding of mAb 3F11 was measured by flow cytometry. mAb 3F11 binds only to […] LNnT; substitution of the terminal Gal of LNnT, for example with a NulO, will decrease mAb 3F11 binding. Approximately 5×10^7 bacteria were incubated with mAb 3F11 tissue culture supernatants for 15 minutes at 37° C. Binding of mAb 3F11 was disclosed with anti-mouse IgM FITC (Sigma; dilution of 1:100). Bacteria grown in CMP-Neu5Ac or in media alone were used as positive and negative controls for sialylation, respectively. A representative histogram is shown in the upper panel. […] B. Factor H (FH) binding to gonococci grown in CMP-KDN. Approximately 5×10^7 bacteria grown in media alone (no sialic acid), media plus CMP-Neu5Ac (20 μg/mL; positive control for FH binding) or in media containing CMP-KDN (20 μg/mL) were incubated with purified human FH (20 μg/mL) in HBSS** for 15 minutes at 37° C. and bound FH was detected with affinity isolated goat anti-human FH followed by anti-goat IgG FITC (Sigma; 1:100 dilution). A representative histogram is shown in the upper panel.
FIG. 3: CMP-KDN7N3 serves as a substrate for gonococcal Lst resulting in incorporation of KDN7N3 on gonococcal lacto-N-neotetraose (LNnT) LOS—Incorporation of KDN7N3 by gonococci. Gonococcal strain F62ΔlgtD (expresses lacto-N-neotetraose (LNnT) from Hepl) was grown in media containing CMP-KDN7N3 (20 μg/mL) and binding of mAb 3F11 was measured by flow cytometry. mAb 3F11 binds only to […] LNnT; substitution of the terminal Gal of LNnT, for example with a NulO, will decrease mAb 3F11 binding. Approximately 5×10^7 bacteria were incubated with mAb 3F11 tissue culture supernatants for 15 minutes at 37° C. Binding of mAb 3F11 was disclosed with anti-mouse IgM FITC (Sigma; dilution of 1:100). […]

Assay [3] deals with T1, gonococcal LOS sialyltransferase (Lst). Conditions: from U.S. patent application Ser. No. 14/627,396; cited from earlier work.
Assay [4] has as its system N. gonorrhoeae F62 ΔlgtD. To be noted: from U.S. patent application Ser. No. 14/627,396; cited from earlier work.
For the next assay, the system named is purified human FH. Conditions: from U.S. Pat. No. 9,765,106 / Ser. No. 14/627,396; cited from earlier work.
The test system of a further assay is N. gonorrhoeae H041. Kind of assay: BALB/c mouse vaginal colonization model. The class given is in vivo. Conditions: 10 μg intravaginally daily; Premarin treated BALB/c mice. The procedure:
FIG. 2: Female BALB/c mice 5-6 weeks of age (Jackson Laboratories) in the diestrus phase of the estrous cycle were started on treatment (that day) with 0.5 mg of Premarin (Pfizer) given subcutaneously on each of three days; −2, 0 and +2 days (before, the day of and after inoculation) to prolong the estrus phase of the cycle and promote susceptibility to N. gonorrhoeae infection. Antibiotics (vancomycin, colistin, neomycin, trimethoprim and streptomycin) that were ineffective against N. gonorrhoeae were also used to reduce competitive microflora. Mice (n=40) were then infected with 10^6 CFU of strain H041. Three groups of mice (n=10/group) were treated with 10 μg intravaginally daily (first dose was administered 30 minutes before the introduction of bacteria) with one of the following CMP-NulOs in normal saline: CMP-Leg5Ac7Ac, CMP-Neu5Ac9Az or CMP-KDN. A fourth group (n=10) was given saline (vehicle control). Vaginal swabs were obtained daily from each animal, serially diluted and plated on chocolate agar containing vancomycin, colistin, neomycin, trimethoprim and streptomycin (VCNTS) to quantify bacterial loads. A. Median time to clearance was estimated using Kaplan-Meier survival curves; the times to clearance were compared between groups using a log-rank test. P<0.0001 for the control versus each of the treatment groups. Time to clearance between each of the treatment groups was similar (P>0.05). B. The mean area under the curve (log10 CFU vs. time) was computed for each mouse to estimate the bacterial burden over time (cumulative infection); the means under the curves were compared between groups using the Kruskal-Wallis nonparametric rank sum test because distributions were skewed or kurtotic. Groups were compared using Dunn's multiple comparison test. ****, P<0.0001; **, P<0.01; *, P<0.05. The differences among the groups that received CMP-NulOs were not significant.
The mouse model experiments and statistical analysis were conducted as described in the art and in U.S. Pat. No. 9,765,106. […]

Where two headings read alike, the source gives them in different places.

The values that follow come from patent US20210401863A1, “TREATMENT AND PREVENTION OF NEISSERIA GONORRHOEAE INFECTION USING CMP-ACTIVATED NONULOSONATE ANALOG COMPOUNDS” (NATIONAL RESEARCH COUNCIL OF CANADA, priority 2015, published 2021).

T1 sequence (P72074 whole entry): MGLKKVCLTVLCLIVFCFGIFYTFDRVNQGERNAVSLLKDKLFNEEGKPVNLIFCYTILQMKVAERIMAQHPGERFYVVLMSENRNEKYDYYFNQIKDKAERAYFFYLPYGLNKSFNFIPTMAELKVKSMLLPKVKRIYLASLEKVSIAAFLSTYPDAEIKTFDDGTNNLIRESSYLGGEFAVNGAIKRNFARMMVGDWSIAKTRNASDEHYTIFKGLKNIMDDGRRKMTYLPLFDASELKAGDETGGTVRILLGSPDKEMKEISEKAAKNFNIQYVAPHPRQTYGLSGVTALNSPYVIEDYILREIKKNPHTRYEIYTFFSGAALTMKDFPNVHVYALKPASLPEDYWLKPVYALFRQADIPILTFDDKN

As to `[N-]=[N+]=N[C@@H](C1O[C@](OP(=O)(O)OC[C@H]2O[C@@H](n3ccc(N)nc3=O)C(O)C2O)(C(=O)O)CC(O)[C@H]1O)[C@H](O)CO` (stereo partly drawn) [CMP-KDN7N3, cytidine 5′-monophospho-3,7-dideoxy-7-azido-D-glycero-D-galacto-nonulosonic acid], the “serum sensitivity (in words)” value in the assay with N. gonorrhoeae F62 ΔlgtD [1] (CMP-NulO alone, 10% serum) is “resulted in serum sensitivity”. The “% survival in 3.3% serum” value with N. gonorrhoeae F62 ΔlgtD [1] (CMP-NulO 20 μg/mL) is 125.60%; in the assay on N. gonorrhoeae F62 ΔlgtD [1] (CMP-NulO 100 μg/mL), 123.67%. The “% survival in 10% serum” value in the assay with N. gonorrhoeae F62 ΔlgtD [1] (CMP-NulO 20 μg/mL, 10% serum) amounted to 33.92%; in the assay with N. gonorrhoeae F62 ΔlgtD [1] (CMP-NulO 100 μg/mL, 10% serum) it was 22.52%. In assay [2], the “binding of mAb 3F11 (use as substrate by gonococcal Lst)” value is “could be utilized by gonococcal LOS sialyltransferase (Lst)”.
Take `CC(=O)NC1C(O)CC(OP(=O)(O)OCC2OC(n3ccc(N)nc3=O)C(O)C2O)(C(=O)O)OC1C(O)C(O)COC(C)=O` (stereo not drawn) [CMP-Neu5Ac9Ac]: in assay [3], the “substrate for gonococcal LOS sialyltransferase (Lst) (earlier results)” value (“substrate … (earlier results)” for short) is recorded as “can serve as substrates for gonococcal LOS sialyltransferase (Lst)”. Moreover, the “serum resistance / serum-mediated killing (earlier results)” value with N. gonorrhoeae F62 ΔlgtD [4] is “enhanced serum-mediated killing”.
On to `CC(=O)N[C@H]1[C@H]([C@H](O)[C@H](O)CN=[N+]=[N-])OC(OP(=O)(O)OC[C@H]2O[C@@H](n3ccc(N)nc3=O)[C@H](O)[C@@H]2O)(C(=O)O)C[C@@H]1O` (stereo partly drawn) [CMP-Neu5Ac9Az], for which, in the assay with purified human FH, the “fH binding to bacteria (earlier results)” value was “not enhance fH binding above levels seen with an unsialylated F62 ΔlgtD control”. In addition, the “substrate … (earlier results)” value in assay [3] is “can serve as substrates for gonococcal LOS sialyltransferase (Lst)”. Also, in the assay on N. gonorrhoeae F62 ΔlgtD [4], the “serum resistance / serum-mediated killing (earlier results)” value is reported as “enhanced serum-mediated killing”. Moreover, the “attenuation of N. gonorrhoeae H041 infection” value in the assay on N. gonorrhoeae H041 is on record as “significantly attenuated”.
As for `CO[C@H](CO)[C@@H](O)[C@@H]1O[C@@](OP(=O)(O)OC[C@H]2O[C@@H](n3ccc(N)nc3=O)[C@H](O)[C@@H]2O)(C(=O)O)C[C@H](O)[C@H]1NC(=O)CO` [CMP-Neu5Gc8Me], the “fH binding to bacteria (earlier results)” value with purified human FH is “not enhance fH binding above levels seen with an unsialylated F62 ΔlgtD control”. Moreover, the “substrate … (earlier results)” value in assay [3] is “can serve as substrates for gonococcal LOS sialyltransferase (Lst)”. Besides, the “serum resistance / serum-mediated killing (earlier results)” value with N. gonorrhoeae F62 ΔlgtD [4] is “enhanced serum-mediated killing”.
Take `Nc1ccn([C@@H]2O[C@H](COP(=O)(O)O[C@@]3(C(=O)O)C[C@H](O)[C@@H](NC(=O)CO)[C@H]([C@H](O)[C@H](O)CO)O3)[C@@H](O)[C@H]2O)c(=O)n1` [CMP-Neu5Gc]: the “fH binding to bacteria (earlier results)” value with purified human FH is “high level of fH binding to bacteria”. In assay [3], the “substrate … (earlier results)” value is on record as “can serve as substrates for gonococcal LOS sialyltransferase (Lst)”. The “serum resistance / serum-mediated killing (earlier results)” value with N. gonorrhoeae F62 ΔlgtD [4] is reported as “able to simulate the high-level serum resistance reported for CMP-Neu5Ac”.
